The conditions of series [1]: 298.2 K; 101.33 kPa; Liquid; Pycnometric method.
Series [2] can be described thus: refractive index (Na D-line) (dimensionless). The note with it: 298.2 K; 101.33 kPa; Liquid; Standard Abbe refractometry.

Structures are written as SMILES. Numbers after ± are expanded uncertainties.

The source of these data is the NIST ThermoML archive (doi:10.1016/j.fluid.2007.10.011).

By mass density is commonly meant mass per unit of volume. A word on the refractive index: it is a measure of how strongly the sample bends light. Turning to `CCCCn1cc[n+](C)c1.COCCOCCOS(=O)(=O)[O-]` [1-butyl-3-methylimidazolium 2-(2-methoxyethoxy)ethyl sulfate], in series [1], the mass density was determined as 1170 ± 10 kg/m3. Also, the refractive index in series [2] was found to be 1.48 ± 0.001.
`CCCCn1cc[n+](C)c1.F[P-](F)(F)(F)(F)F` [1-butyl-3-methylimidazolium hexafluorophosphate]: in series [1], the mass density is 1380 ± 10 kg/m3. Also, the refractive index in series [2] was found to be 1.41 ± 0.001.
On the same counts, the results for `CCCCn1cc[n+](C)c1.F[B-](F)(F)F` [1-butyl-3-methylimidazolium tetrafluoroborate] are 1200 ± 10 kg/m3 and 1.422 ± 0.001.
As to `CCn1cc[n+](C)c1.Cc1ccc(S(=O)(=O)[O-])cc1` [1-ethyl-3-methylimidazolium 4-methylbenzenesulfonate], the mass density in series [1] is recorded as 1210 ± 10 kg/m3. In addition, the refractive index in series [2] is reported as 1.538 ± 0.001.
On the same counts, the results for `CC(O)c1ccccc1` (stereo unspecified) [1-phenylethanol] are 1010 ± 2 kg/m3 and 1.5225 ± 0.0008.
On the same counts, the results for `CCC(=O)OC(C)c1ccccc1` (stereo unspecified) [1-phenylethyl propionate] are 1007 ± 2 kg/m3 and 1.4865 ± 0.0008.
The corresponding values for `CCC(=O)O` [propanoic acid] are 992 ± 1 kg/m3 and 1.382 ± 0.001.
For the molecule `C=COC(=O)CC` [vinyl propanoate], the mass density in series [1] stood at 919 ± 2 kg/m3. The refractive index in series [2] was 1.402 ± 0.001.
